Experimental data: US20180064646A1, “METHOD AND DEVICE FOR ADMINISTERING XINAFOATE SALT OF N4-(2,2-DIFLUORO-4H-BENZO[1,4]OXAZIN-3-ONE)-6-YL]-5-FLUORO-N2-[3-(METHYLAMINOCARBONYLMETHYLENEOXY)PHENYL]2,4-PYRIMIDINEDIAMINE” (Rigel Pharmaceutical, Inc., priority 2011, published 2018)
Where a name gives a salt, the structure may show the parent alone.

Legend:
Format in all cases: physicochemical
[1] = Hygroscopicity by dynamic vapor sorption (DVS)
Method: (§1) Hygroscopicity was assessed using dynamic vapor sorption equipment (Surface Measurement Systems Ltd, model DVS-1). The analysis was conducted at 30° C. with a nitrogen gas flow of 200 cc/min. Water sorption and desorption were determined in the range 0 to 90% relative humidity (RH) using 15% RH intervals. Exposure was for a minimum of 2 hours at each humidity, or until the rate of weight change was less than 0.0003%/minute (averaged over 10 minutes). Sample weight was 12.6 mg. The sample was weighed using a CAHN D-200, seven place digital recording balance, which is an integral part of the equipment. […] Solvation/Hydration was assessed by thermogravimetric analysis (TGA) using a TA Instruments Hi-Res TGA 2950 instrument measuring the weight loss of an 8.8 mg sample in an open platinum pan. The sample was heated at 20° C./min from ambient to 300° C. utilizing a nitrogen furnace purge gas.

[2] = Solvation/hydration assessed by thermogravimetric analysis (TGA); solid form screening; settings: for hydration or solvation: TGA, ambient to 300° C. at 20° C./min
Method: as §1

[3] = Solid state stability and excipient compatibility on storage (drug content and impurities); settings: for % main band remaining versus control: API
Method: In order to test for solid state stability and excipient compatibility, a sample of the xinafoate salt was micronized by jet milling (particle size: D10=0.24 μm; D50=1.15 D90=4.29 μm) and the resulting powder was blended at a 1:100 weight ratio with lactose monohydrate (Respitose grade SV008). Samples were stored for 12 weeks at 25° C./60% relative humidity and 40° C./75% relative humidity and assayed for remaining drug content and impurities at 4, 8 and 12 weeks. A control sample was stored at 5° C./0% humidity.

SMILES	hygroscopicity ([1]; DVS, 0 to 90% RH, 30° C.)	water sorption ([1]; at 90% RH, 30° C., DVS, unmicronized sample) [%]	water sorption ([1]; at 90% relative humidity, following micronization using jet milling) [%]	solid form after micronization ([1]; following micronization using jet milling)	hydration or solvation [2]	time for which stable ([3]; 25° C./60% relative humidity)	time for which stable ([3]; 40° C./75% relative humidity)	% main band remaining versus control ([3]; 25° C./60% RH, 4 weeks, control 5° C./0% humidity) [%]	% main band remaining versus control ([3]; 25° C./60% RH, 8 weeks) [%]	% main band remaining versus control ([3]; 25° C./60% RH, 12 weeks) [%]	% main band remaining versus control ([3]; 40° C./75% RH, 4 weeks) [%]	% main band remaining versus control ([3]; 40° C./75% RH, 8 weeks) [%]	% main band remaining versus control ([3]; 40° C./75% RH, 12 weeks) [%]	solvate formation ([2]; nine solvents tested)
CNC(=O)COc1cccc(Nc2ncc(F)c(Nc3ccc4c(c3)NC(=O)C(F)(F)O4)n2)c1 [xinafoate salt, N4-[(2,2-difluoro-4H-benzo[1,4]oxazin-3-one)-6-yl]-5-fluoro-N2-[3-(methylaminocarbonylmethyleneoxy)phenyl]-2,4-pyrimidinediamine]	essentially non-hygroscopic	0.6	0.9	no change in solid form	does not show any hydration or solvation	at least two years	at least six months	100.2	99.9	100.1	100.4	100.0	100.0	
CNC(=O)COc1cccc(Nc2ncc(F)c(Nc3ccc4c(c3)NC(=O)C(F)(F)O4)n2)c1 [free base, N4-[(2,2-difluoro-4H-benzo[1,4]oxazin-3-one)-6-yl]-5-fluoro-N2-[3-(methylaminocarbonylmethyleneoxy)phenyl]-2,4-pyrimidinediamine]					hydrates to form a hemihydrate									formed a different solvated form in each of nine solvents tested
